Test results taken from patent US10610563B2, “Use of ubiquitin-proteasome system inhibitors for treatment of tumors associated with neurofibromatosis type-2” (BIOXCEL CORPORATION, priority 2014, dated 2020).

How the values were obtained:
[1] = system: Caspase 3/7; assay: Caspase 3/7 activity (Caspase-Glo 3/7) in control haploid cells; conditions: 18 hrs
[2] = system: Caspase 3/7; assay: Caspase 3/7 activity (Caspase-Glo 3/7) in NF2 knockout cell line; conditions: 18 hrs
[3] = biological target: T1, 20S proteasome (Homo sapiens, UniProt P28074); assay: 20S proteasome activity (chymotrypsin-like, Suc-LLVY-AMC) in NF2 knockout cells; type: cell-based
Procedure: (§1) The cells were then washed in PBS (Phosphate buffered saline) and lysed in a buffer containing non-ionic detergent and ATP. The cell lysate was centrifuged at 15,000 g for 30 minutes at 4° C. The supernatant was collected, aliquoted and stored at −80° C. until assay. Chymotrypsin-like peptidase activity of 20S proteasome was measured by using 40 μM Succinyl-Leu-Leu-Val-Tyr-AMC (Boston Biochem: S-280), a fluorogenic peptide substrate, along with 12 nM of recombinant PA28α (Boston Biochem: E-381 or R&D Systems Cat. # E-381-100), in an assay buffer containing 20 mM HEPES pH 7.4 and 0.5 mM EDTA. 20S proteasome cleaved the peptide substrate to release the free fluorophore AMC. […] The compound carfilzomib was used as an internal control for the assay (NF2 cells treated with carfilzomib). Similar assay was also performed with the wild type haploid (HAP1) cells for 18 hrs at different bortezomib concentrations ranging from 1 nM to 300 nM (i.e. 1 nM, 3 nM, 10 nM, 30 nM, 100 nM and 300 nM). The reaction was monitored by measuring the fluorescence through Flex Station 3 (Molecular Devices) or Envision (PerkinElmer) (excitation/emission: 353/442 nm), for 1 hour a 37° C. under kinetic setting. Substrate turnover was estimated as a standard curve generated using standard AMC. The results of 20S proteasome assay are described in FIGS. 1, 2, 3, 4 & 5.

[4] = biological target: T1, 20S proteasome; assay: 20S proteasome activity (chymotrypsin-like, Suc-LLVY-AMC) in wild type haploid (HAP1) cells; type: cell-based; conditions: concentration dependent manner; 18 hrs
Procedure: as §1

[5] = system: LATS1; assay: Western blot analysis for LATS1 protein in NF2 knockout cell line; type: cell-based; conditions: 3, 10 & 30 nM at 18 hrs; compared to cells not treated
Procedure: Cells from NF2 knockout cell line 1293-1 cells control Haploid cell line (control wild type cells) are seeded in 6 well plates. […] LATS1 protein was assayed by Western blot (Chemiluminescence) method and both NF2 cell lines are used in the analysis. […] Cell lysates were analysed by western blotting and LATS1 was detected using anti-lats1 antibody (Abcam, ab70561); GAPDH protein levels were assayed using anti-GAPDH antibody as endogenous control. The objective was to quantify the up-regulation/down-regulation of proteins (LATS1) involved in Hippo signaling pathway in NF2 knockout cell line compared to the control cell line. Another objective is to observe the effect of bortezomib treatment in the NF2 knockout cell line, following assays using the Western Blot/WES System.

[6] = system: mesothelioma; assay: Treatment of mesothelioma patients carrying mutations in NF2 or BAP1 genes; type: in vivo; conditions: mesothelioma patients with NF2 or BAP1 mutation; 1.3 mg/m^2 intravenous bolus twice in a week, 21-d cycle, up to eight cycles
From the text: Mesothelioma patients can be screened for mutation(s) in any of these genes by molecular genetic testing, which is done by the mutation scanning and gene duplication/deletion testing. For example, mutation scanning is done by polymerase chain reaction amplification of the DNA of patients compared to control DNA, and DNA with altered DNA segments may be subjected to the further testing, such as sequence analysis to identify the sequence alterations. Gene duplication/deletion testing is done by quantitative polymerase chain reaction, long-range polymerase chain reaction, multiplex ligation-dependent probe amplification (MLPA), and chromosomal microarray (CMA) that includes the gene/chromosome segment for detection. Molecular genetic testing confirms about the mutation in the NF2 gene or that in the BAP1 gene. […] Bortezomib at a dose of 1.3 mg/m^2 via intravenous bolus for 3 to 5 seconds is given to patients, twice in a week for at least 2 weeks (days 1, 4, 8 and 11) of a 21-d cycle for up to eight cycles.

[7] = in vitro; conditions: human, wild type haploid (HAP1) cells
[8] = system: NF2 knockout cell line 1293-1; assay: Cell proliferation/cytotoxicity assay (MTS / CellTitre Blue) in NF2 knockout cell line
[9] = system: wild type haploid (HAP1) cells; assay: Cell proliferation/cytotoxicity assay (MTS / CellTitre Blue) in control HAP1 cell line
[10] = 0.1 nM to 100 nM, 6 hrs and 12 hrs

CN[C@@H]1C[C@H]2O[C@@](C)([C@@H]1OC)n1c3ccccc3c3c4c(c5c6ccccc6n2c5c31)C(=O)NC4 [Staurosporine]
apoptosis in the Caspase 3/7 assay, positive reference control, wild type haploid cell line ([1]; Staurosporine 1 & 10 μM): induced apoptosis was also observed | apoptosis in the Caspase 3/7 assay, positive reference control, NF2 knockout cell line ([2]; Staurosporine 1 & 10 μM): induced apoptosis was also observed

CC(C)C[C@H](NC(=O)[C@H](Cc1ccccc1)NC(=O)c1cnccn1)B(O)O [bortezomib, [(1R)-3-methyl-1-({(2S)-3-phenyl-2[(pyrazin-2-ylcarbonyl)amino]propanoyl}amino)butyl]boronic acid]
proteasome activity in the NF2 knockout cell line (dose dependence) ([3]; 1 nM to 300 nM): dose dependent decrease in proteasome activity | proteasome activity in the NF2 knockout cell line ([3]; from 3 nM onwards, post 6 hrs, 12 hrs, 18 hrs and 24 hrs incubation): decreased significantly | comparison of % inhibition in proteasome activity, NF2 knockout cells vs wild type haploid cells ([3]; post 18 hrs incubation (FIG. 5)): greater inhibition in the NF2 knockout cells | proteasome activity in the wild type haploid cell line [4]: showed inhibition in proteasome activity | levels of LATS1 protein in NF2 knockout cell line (Western blot) [5]: increased levels of LATS1 | delay in tumor progression [6]: 50% | reduction in tumor size [6]: 25% | cytotoxicity at 6 h, 0.1 nM [7]: 2.64% | cytotoxicity at 6 h, 0.3 nM [7]: 4.7% | cytotoxicity at 6 h, 1 nM [7]: 5.65% | cytotoxicity at 6 h, 3 nM [7]: 1.58% | cytotoxicity at 6 h, 10 nM [7]: 0.99% | cytotoxicity at 6 h, 30 nM [7]: 7.63% | cytotoxicity at 6 h, 60 nM [7]: 9.63% | cytotoxicity at 6 h, 100 nM [7]: 6.08% | cytotoxicity at 12 h, 0.1 nM [7]: 3.91% | cytotoxicity at 12 h, 0.3 nM [7]: 2.62% | cytotoxicity at 12 h, 1 nM [7]: 0.2% | cytotoxicity at 12 h, 3 nM [7]: 1.1% | cytotoxicity at 12 h, 10 nM [7]: 5.12% | cytotoxicity at 12 h, 30 nM [7]: 24.9% | cytotoxicity at 12 h, 60 nM [7]: 31.9% | cytotoxicity at 12 h, 100 nM [7]: 26.9% | cytotoxicity at 18 h, 0.1 nM [7]: 6.83% | cytotoxicity at 18 h, 0.3 nM [7]: 6.9% | cytotoxicity at 18 h, 1 nM [7]: 5.78% | cytotoxicity at 18 h, 3 nM [7]: 7.83% | cytotoxicity at 18 h, 10 nM [7]: 7.56% | cytotoxicity at 18 h, 30 nM [7]: 26.3% | cytotoxicity at 18 h, 60 nM [7]: 31% | cytotoxicity at 18 h, 100 nM [7]: 32.7% | cytotoxicity at 24 h, 0.1 nM [7]: 11.2% | cytotoxicity at 24 h, 0.3 nM [7]: 11.4% | cytotoxicity at 24 h, 1 nM [7]: 10.9% | cytotoxicity at 24 h, 3 nM [7]: 16.6% | cytotoxicity at 24 h, 10 nM [7]: 44.8% | cytotoxicity at 24 h, 30 nM [7]: 75% | cytotoxicity at 24 h, 60 nM [7]: 77.4% | cytotoxicity at 24 h, 100 nM [7]: 78.9% | apoptosis/Caspase 3/7 activation in the control haploid cells ([1]; 3 nM onwards, compared to NF2 knockout cell line): minimal increase in apoptosis/Caspase 3/7 activation | caspase activity (apoptosis) in the NF2 knockout cell line ([2]; 3 nM onwards): significant increase in the caspase activity | cytotoxicity in the NF2 knockout cell line [8, 10]: 10-15% | cytotoxicity in the NF2 knockout cell line (in words) [8, 10]: do not show any significant cytotoxicity | Average % Cytotoxicity in the NF2 knockout cells ([8]; bortezomib 0.1 nM, 6 hrs): −5.18% | Average % Cytotoxicity in the NF2 knockout cells ([8]; bortezomib 0.1 nM, 12 hrs): −21.57% | Average % Cytotoxicity in the NF2 knockout cells ([8]; bortezomib 0.1 nM, 18 hrs): −16.92% | Average % Cytotoxicity in the NF2 knockout cells ([8]; bortezomib 0.1 nM, 24 hrs): −63.43% | Average % Cytotoxicity in the NF2 knockout cells ([8]; bortezomib 0.3 nM, 6 hrs): −5.03% | Average % Cytotoxicity in the NF2 knockout cells ([8]; bortezomib 0.3 nM, 12 hrs): −32.20% | Average % Cytotoxicity in the NF2 knockout cells ([8]; bortezomib 0.3 nM, 18 hrs): −26.59% | Average % Cytotoxicity in the NF2 knockout cells ([8]; bortezomib 0.3 nM, 24 hrs): −71.10% | Average % Cytotoxicity in the NF2 knockout cells ([8]; bortezomib 1 nM, 6 hrs): −1.49% | Average % Cytotoxicity in the NF2 knockout cells ([8]; bortezomib 1 nM, 12 hrs): −28.42% | Average % Cytotoxicity in the NF2 knockout cells ([8]; bortezomib 1 nM, 18 hrs): −25.10% | Average % Cytotoxicity in the NF2 knockout cells ([8]; bortezomib 1 nM, 24 hrs): −66.58% | Average % Cytotoxicity in the NF2 knockout cells ([8]; bortezomib 3 nM, 6 hrs): −0.78% | Average % Cytotoxicity in the NF2 knockout cells ([8]; bortezomib 3 nM, 12 hrs): −24.79% | Average % Cytotoxicity in the NF2 knockout cells ([8]; bortezomib 3 nM, 18 hrs): −19.23% | Average % Cytotoxicity in the NF2 knockout cells ([8]; bortezomib 3 nM, 24 hrs): −68.56% | Average % Cytotoxicity in the NF2 knockout cells ([8]; bortezomib 10 nM, 6 hrs): 8.10% | Average % Cytotoxicity in the NF2 knockout cells ([8]; bortezomib 10 nM, 12 hrs): −11.84% | Average % Cytotoxicity in the NF2 knockout cells ([8]; bortezomib 10 nM, 18 hrs): 14.52% | Average % Cytotoxicity in the NF2 knockout cells ([8]; bortezomib 10 nM, 24 hrs): 29.86% | Average % Cytotoxicity in the NF2 knockout cells ([8]; bortezomib 30 nM, 6 hrs): 14.05% | Average % Cytotoxicity in the NF2 knockout cells ([8]; bortezomib 30 nM, 12 hrs): 17.18% | Average % Cytotoxicity in the NF2 knockout cells ([8]; bortezomib 30 nM, 18 hrs): 35.71% | Average % Cytotoxicity in the NF2 knockout cells ([8]; bortezomib 30 nM, 24 hrs): 37.83% | Average % Cytotoxicity in the NF2 knockout cells ([8]; bortezomib 60 nM, 6 hrs): 16.44% | Average % Cytotoxicity in the NF2 knockout cells ([8]; bortezomib 60 nM, 12 hrs): 16.07% | Average % Cytotoxicity in the NF2 knockout cells ([8]; bortezomib 60 nM, 18 hrs): 38.70% | Average % Cytotoxicity in the NF2 knockout cells ([8]; bortezomib 60 nM, 24 hrs): 43.98% | Average % Cytotoxicity in the NF2 knockout cells ([8]; bortezomib 100 nM, 6 hrs): 10.89% | Average % Cytotoxicity in the NF2 knockout cells ([8]; bortezomib 100 nM, 12 hrs): 15.71% | Average % Cytotoxicity in the NF2 knockout cells ([8]; bortezomib 100 nM, 18 hrs): 39.72% | Average % Cytotoxicity in the NF2 knockout cells ([8]; bortezomib 100 nM, 24 hrs): 45.16% | toxicity in the NF2 knockout cell line (in words) ([8]; higher concentration (>30 nM), 18 hrs and 24 hrs): slight toxicity was observed | toxicity in the wild type haploid (HAP1) cell line (in words) ([9]; 6 hrs): did not show any significant toxicity | toxicity in the wild type haploid (HAP1) cell line (in words) ([9]; higher concentration (>30 nM), 12, 18 & 24 hrs): toxicity was observed
